# Data from PubChem BioAssay AID1963438 (Molecular Pharmacology Branch, DTP, NCI, 2024).
# Tested on: NCI-H510 multicellular tumor spheroid growth, % test/control
# Experiment: Anticancer human tumor NCI-H510 cell line growth inhibition [Asc];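 further: spheroids exposed to agents for 7 days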;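 on viability, T/C: 100% = DMSO vehicle control wells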
# Conditions: for IC50: curve of first compound; for viability, T/C: stronger effect = lower value
# In short: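 Concentration series start at each agent's clinical Cmax, or at 10 microM when none is established, and drop in half-log steps; agents are applied alone or together to complex spheroids built with HUVEC and hMSC.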
# [1] = second compound 0.1 µM, first compound 0.0316 µM
# [2] = second compound 0.1 µM, first compound 0.1 µM
# [3] = second compound 0.316 µM, first compound 0.0316 µM
# [4] = second compound 0.316 µM, first compound 0.1 µM
# [5] = second compound 1 µM, first compound 0.0316 µM
# [6] = second compound 1 µM, first compound 0.1 µM
# [7] = second compound 3.16 µM, first compound 0.0316 µM
# [8] = second compound 3.16 µM, first compound 0.1 µM
# [9] = second compound 10 µM, first compound 0.0316 µM
# [10] = second compound 10 µM, first compound 0.1 µM
structure (smiles),measurement,setting,value
C#Cc1c(F)ccc2cc(O)cc(-c3ncc4c(N5CC6CCC(C5)N6)nc(OCC56CCCN5CC(F)C6)nc4c3F)c12 (stereo not given) + Cc1c(S(C)(=O)=O)c(-c2cc(F)cc(N3CCN(c4ccc(NS(=O)(=O)c5ccc(NC(CCN6CCC(C(=O)OCCCP(=O)(O)O)CC6)CSc6ccccc6)c(S(=O)(=O)C(F)(F)F)c5)cc4)CC3)c2)c(-c2ccc(Cl)cc2)n1C(C)C,IC50,second compound 0.1 µM,> 10000 nM
same,IC50,second compound 0.316 µM,> 10000 nM
same,IC50,second compound 1 µM,> 10000 nM
same,IC50,second compound 3.16 µM,> 10000 nM
same,IC50,second compound 10 µM,6600 nM
same,"viability, T/C",[1],119%
same,"viability, T/C",[2],121%
same,"viability, T/C","second compound 0.1 µM, first compound 0.316 µM",103%
same,"viability, T/C","second compound 0.1 µM, first compound 1 µM",81.1%
same,"viability, T/C","second compound 0.1 µM, first compound 3.16 µM",93.4%
same,"viability, T/C","second compound 0.1 µM, first compound 10 µM",109%
same,"viability, T/C",[3],112%
same,"viability, T/C",[4],104%
same,"viability, T/C","second compound 0.316 µM, first compound 0.316 µM",105%
same,"viability, T/C","second compound 0.316 µM, first compound 1 µM",91.7%
same,"viability, T/C","second compound 0.316 µM, first compound 3.16 µM",89.9%
same,"viability, T/C","second compound 0.316 µM, first compound 10 µM",73%
same,"viability, T/C",[5],105%
same,"viability, T/C",[6],121%
same,"viability, T/C","second compound 1 µM, first compound 0.316 µM",119%
same,"viability, T/C","second compound 1 µM, first compound 1 µM",109%
same,"viability, T/C","second compound 1 µM, first compound 3.16 µM",108%
same,"viability, T/C","second compound 1 µM, first compound 10 µM",73%
same,"viability, T/C",[7],108%
same,"viability, T/C",[8],101%
same,"viability, T/C","second compound 3.16 µM, first compound 0.316 µM",110%
same,"viability, T/C","second compound 3.16 µM, first compound 1 µM",115%
same,"viability, T/C","second compound 3.16 µM, first compound 3.16 µM",109%
same,"viability, T/C","second compound 3.16 µM, first compound 10 µM",77%
same,"viability, T/C",[9],102%
same,"viability, T/C",[10],89.3%
same,"viability, T/C","second compound 10 µM, first compound 0.316 µM",113%
same,"viability, T/C","second compound 10 µM, first compound 1 µM",70.3%
same,"viability, T/C","second compound 10 µM, first compound 3.16 µM",74.3%
same,"viability, T/C","second compound 10 µM, first compound 10 µM",38.5%
NC(=O)C(=Cn1cnc(-c2cc(C(F)(F)F)cc(C(F)(F)F)c2)n1)c1cncnc1 + Cc1c(S(C)(=O)=O)c(-c2cc(F)cc(N3CCN(c4ccc(NS(=O)(=O)c5ccc(NC(CCN6CCC(C(=O)OCCCP(=O)(O)O)CC6)CSc6ccccc6)c(S(=O)(=O)C(F)(F)F)c5)cc4)CC3)c2)c(-c2ccc(Cl)cc2)n1C(C)C,IC50,second compound 0.1 µM,199 nM
same,IC50,second compound 0.316 µM,126 nM
same,IC50,second compound 1 µM,73.4 nM
same,IC50,second compound 3.16 µM,169 nM
same,IC50,second compound 10 µM,53.4 nM
same,"viability, T/C","second compound 0.1 µM, first compound 0.000949 µM",87%
same,"viability, T/C","second compound 0.1 µM, first compound 0.003 µM",76.6%
same,"viability, T/C","second compound 0.1 µM, first compound 0.00949 µM",109%
same,"viability, T/C","second compound 0.1 µM, first compound 0.03 µM",74.3%
same,"viability, T/C","second compound 0.1 µM, first compound 0.0949 µM",86.7%
same,"viability, T/C","second compound 0.1 µM, first compound 0.3 µM",29.6%
same,"viability, T/C","second compound 0.316 µM, first compound 0.000949 µM",102%
same,"viability, T/C","second compound 0.316 µM, first compound 0.003 µM",73.5%
same,"viability, T/C","second compound 0.316 µM, first compound 0.00949 µM",103%
same,"viability, T/C","second compound 0.316 µM, first compound 0.03 µM",78.2%
same,"viability, T/C","second compound 0.316 µM, first compound 0.0949 µM",66.8%
same,"viability, T/C","second compound 0.316 µM, first compound 0.3 µM",4.66%
same,"viability, T/C","second compound 1 µM, first compound 0.000949 µM",88.5%
same,"viability, T/C","second compound 1 µM, first compound 0.003 µM",76.9%
same,"viability, T/C","second compound 1 µM, first compound 0.00949 µM",88.9%
same,"viability, T/C","second compound 1 µM, first compound 0.03 µM",74%
same,"viability, T/C","second compound 1 µM, first compound 0.0949 µM",43%
same,"viability, T/C","second compound 1 µM, first compound 0.3 µM",6.15%
same,"viability, T/C","second compound 3.16 µM, first compound 0.000949 µM",79.2%
same,"viability, T/C","second compound 3.16 µM, first compound 0.003 µM",88.6%
same,"viability, T/C","second compound 3.16 µM, first compound 0.00949 µM",94.8%
same,"viability, T/C","second compound 3.16 µM, first compound 0.03 µM",59.2%
same,"viability, T/C","second compound 3.16 µM, first compound 0.0949 µM",89%
same,"viability, T/C","second compound 3.16 µM, first compound 0.3 µM",18.3%
same,"viability, T/C","second compound 10 µM, first compound 0.000949 µM",76.1%
same,"viability, T/C","second compound 10 µM, first compound 0.003 µM",84.5%
same,"viability, T/C","second compound 10 µM, first compound 0.00949 µM",59.3%
same,"viability, T/C","second compound 10 µM, first compound 0.03 µM",70%
same,"viability, T/C","second compound 10 µM, first compound 0.0949 µM",35%
same,"viability, T/C","second compound 10 µM, first compound 0.3 µM",1.98%
Cn1ncnc1[C@H]1c2n[nH]c(=O)c3cc(F)cc(c23)N[C@@H]1c1ccc(F)cc1 + Cc1c(S(C)(=O)=O)c(-c2cc(F)cc(N3CCN(c4ccc(NS(=O)(=O)c5ccc(NC(CCN6CCC(C(=O)OCCCP(=O)(O)O)CC6)CSc6ccccc6)c(S(=O)(=O)C(F)(F)F)c5)cc4)CC3)c2)c(-c2ccc(Cl)cc2)n1C(C)C,IC50,second compound 0.1 µM,8.46 nM
same,IC50,second compound 0.316 µM,9.32 nM
same,IC50,second compound 1 µM,4.76 nM
same,IC50,second compound 3.16 µM,6.9 nM
same,IC50,second compound 10 µM,5 nM
same,"viability, T/C","second compound 0.1 µM, first compound 0.000316 µM",88%
same,"viability, T/C","second compound 0.1 µM, first compound 0.001 µM",101%
same,"viability, T/C","second compound 0.1 µM, first compound 0.00316 µM",58.5%
same,"viability, T/C","second compound 0.1 µM, first compound 0.01 µM",58.2%
same,"viability, T/C",[1],9.67%
same,"viability, T/C",[2],7.11%
same,"viability, T/C","second compound 0.316 µM, first compound 0.000316 µM",106%
same,"viability, T/C","second compound 0.316 µM, first compound 0.001 µM",70.3%
same,"viability, T/C","second compound 0.316 µM, first compound 0.00316 µM",101%
same,"viability, T/C","second compound 0.316 µM, first compound 0.01 µM",47.3%
same,"viability, T/C",[3],5.08%
same,"viability, T/C",[4],5.01%
same,"viability, T/C","second compound 1 µM, first compound 0.000316 µM",96.2%
same,"viability, T/C","second compound 1 µM, first compound 0.001 µM",91.8%
same,"viability, T/C","second compound 1 µM, first compound 0.00316 µM",68.7%
same,"viability, T/C","second compound 1 µM, first compound 0.01 µM",16.2%
same,"viability, T/C",[5],2.54%
same,"viability, T/C",[6],2.95%
same,"viability, T/C","second compound 3.16 µM, first compound 0.000316 µM",96.9%
same,"viability, T/C","second compound 3.16 µM, first compound 0.001 µM",79.8%
same,"viability, T/C","second compound 3.16 µM, first compound 0.00316 µM",92.3%
same,"viability, T/C","second compound 3.16 µM, first compound 0.01 µM",31.1%
same,"viability, T/C",[7],12.2%
same,"viability, T/C",[8],2.55%
same,"viability, T/C","second compound 10 µM, first compound 0.000316 µM",92.6%
same,"viability, T/C","second compound 10 µM, first compound 0.001 µM",88.9%
same,"viability, T/C","second compound 10 µM, first compound 0.00316 µM",81.9%
same,"viability, T/C","second compound 10 µM, first compound 0.01 µM",1.81%
same,"viability, T/C",[9],1.16%
same,"viability, T/C",[10],1.64%
